Biological target: T1, KRAS G12C 1-169, his-tagged protein, GDP-loaded (Homo sapiens, UniProt P01116, G12C)
T1 construct: KRAS G12C 1-169, his-tagged protein, GDP-loaded
Assay: Covalent binding (% modification) to KRAS G12C by mass spectrometry; note: test concentration or dose not given here

[1] = covalent binding to KRAS G12C after a ten minute incubation period
[2] = covalent binding to KRAS G12C after a three minute incubation period

Row | Compound | Binding % [1] | Binding % [2] | also measured
1 | C=CC(=O)N1[C@H](C)CN(c2nc(OCCN3CC(F)(F)C3)nc3c(F)c(-c4c(O)cccc4F)c(Cl)cc23)C[C@@H]1C [Compound 32, 1-((2R,6S)-4-(6-chloro-2-(2-(3,3-difluoroazetidin-1-yl)ethoxy)-8-fluoro-7-(2-fluoro-6-hydroxyphenyl)quinazolin-4-yl)-2,6-dimethyl-piperazin-1-yl) prop-2-en-1-one] | +++ (+++ indicates binding activity greater than 90%) | – | –
2 | C=CC(=O)N1C[C@H](C)N(c2nc(N3CC(N(C)C)C3)nc3c(F)c(-c4c(C)ccc5cn[nH]c45)c(Cl)cc23)C[C@H]1C (atropisomer, axis not shown) [Compound 72, 1-((2R,5S)-4-((R)-6-chloro-2-(3-(dimethylamino)azetidin-1-yl)-8-fluoro-7-(6-methyl-1H-indazol-7-yl)quinazolin-4-yl)-2,5-dimethyl-piperazin-1-yl) prop-2-en-1-one] | +++ (+++ indicates binding activity greater than 90%) | – | –
3 | C=CC(=O)N1C[C@H](C)N(c2nc(N3CC(C)(N(C)C)C3)nc3c(F)c(-c4c(C)ccc5cn[nH]c45)c(Cl)cc23)C[C@H]1C [Compound 124, 1-((2R,5S)-4-(6-chloro-2-(3-(dimethylamino)-3-methylazetidin-1-yl)-8-fluoro-7-(6-methyl-1H-indazol-7-yl)quinazolin-4-yl)-2,5-dimethyl-piperazin-1-yl) prop-2-en-1-one] | – | ++ (++ indicates binding activity from 50 to 90%) | –
4 | C=CC(=O)N1C[C@H](C)N(c2nc(N3CC(N(CC)C4CC4)C3)nc3c(F)c(-c4c(O)cccc4F)c(Cl)cc23)C[C@H]1C [Compound 105, 1-((2R,5S)-4-(6-chloro-2-(3-(cyclopropyl (ethyl)amino)azetidin-1-yl)-8-fluoro-7-(2-fluoro-6-hydroxyphenyl)quinazolin-4-yl)-2,5-dimethyl-piperazin-1-yl) prop-2-en-1-one] | – | ++ (++ indicates binding activity from 50 to 90%) | –
5 | C=CC(=O)N1C[C@H](C)N(c2nc(N3CC(N(C)C)C3)nc3c(F)c(-c4c(F)cccc4F)c(Cl)cc23)C[C@H]1C [Compound 180, 1-((2R,5S)-4-(6-chloro-7-(2,6-difluorophenyl)-2-(3-(dimethyl-amino)azetidin-1-yl)-8-fluoro-quinazolin-4-yl)-2,5-dimethyl-piperazin-1-yl) prop-2-en-1-one] | – | + (+ indicates binding activity greater than 0% and up to 50%) | –
6 | C=CC(=O)N1C[C@H](C)N(c2nc(N3CC(N(CC)C4CC4)C3)nc3c(F)c(-c4c(C)ccc5[nH]ncc45)c(Cl)cc23)C[C@H]1C [Compound 125, 1-((2R,5S)-4-(6-chloro-2-(3-(cyclopropyl (ethyl)amino)azetidin-1-yl)-8-fluoro-7-(5-methyl-1H-indazol-4-yl)quinazolin-4-yl)-2,5-dimethyl-piperazin-1-yl) prop-2-en-1-one] | – | ++ (++ indicates binding activity from 50 to 90%) | –
7 | C=CC(=O)N1C[C@H](C)N(c2nc(N3CC4(CCN(C5CC5)CC4)C3)nc3c(F)c(-c4c(O)cccc4F)c(Cl)cc23)C[C@H]1C [Compound 173, 1-((2R,5S)-4-(6-chloro-2-(7-cyclopropyl-2,7-diazaspiro[3.5]nonan-2-yl)-8-fluoro-7-(2-fluoro-6-hydroxyphenyl)quinazolin-4-yl)-2,5-dimethyl-piperazin-1-yl) prop-2-en-1-one] | – | ++ (++ indicates binding activity from 50 to 90%) | –
8 | C=CC(=O)N1CCN(c2nc(OCCN(CC)CC)nc3c(F)c(-c4c(O)cccc4F)c(Cl)cc23)[C@@H](C)C1 [Compound 9, 1-((3S)-4-(6-chloro-2-(2-(diethylamino)ethoxy)-8-fluoro-7-(2-fluoro-6-hydroxyphenyl)quinazolin-4-yl)-3-methylpiperazin-1-yl)prop-2-en-1-one] | ++ (++ indicates binding activity from 50 to 90%) | – | –
9 | C[C@@H]1CN(c2nc(N3CC(N(C)C)C3)nc3c(F)c(-c4c(O)cccc4F)c(Cl)cc23)[C@@H](C)CN1C(=O)C1CO1 (stereo partly drawn) [Compound 115, ((2R,5S)-4-(6-chloro-2-(3-(dimethylamino)azetidin-1-yl)-8-fluoro-7-(2-fluoro-6-hydroxyphenyl)quinazolin-4-yl)-2,5-dimethyl-piperazin-1-yl) (oxiran-2-yl) methanone] | – | – | Binding % (% modification at 10 min (footnote †)): + (+ indicates binding activity greater than 0% and up to 50%)
10 | C=CC(=O)N1C[C@H](C)N(c2nc(N3CC(N(CC)CC)C3)nc3c(F)c(-c4c(C)ccc5cn[nH]c45)c(Cl)cc23)C[C@H]1C [Compound 117, 1-((2R,5S)-4-(6-chloro-2-(3-(diethylamino)azetidin-1-yl)-8-fluoro-7-(6-methyl-1H-indazol-7-yl)quinazolin-4-yl)-2,5-dimethyl-piperazin-1-yl) prop-2-en-1-one] | – | + (+ indicates binding activity greater than 0% and up to 50%) | –
11 | C=CC(=O)N1C[C@H](C)N(c2nc(OCCN3CC(F)(F)C3)nc3c(F)c(-c4c(C)ccc5cn[nH]c45)c(Cl)cc23)C[C@H]1C [Compound 112, 1-((2R,5S)-4-(6-chloro-2-(2-(3,3-difluoroazetidin-1-yl)ethoxy)-8-fluoro-7-(6-methyl-1H-indazol-7-yl)quinazolin-4-yl)-2,5-dimethyl-piperazin-1-yl) prop-2-en-1-one] | – | ++ (++ indicates binding activity from 50 to 90%) | –
12 | C=CC(=O)N1C[C@H](C)N(c2nc(N3CC(N)C3)nc3c(F)c(-c4c(C)ccc5[nH]ncc45)c(Cl)cc23)C[C@H]1C [Compound 165, 1-((2R,5S)-4-(2-(3-aminoazetidin-1-yl)-6-chloro-8-fluoro-7-(5-methyl-1H-indazol-4-yl)quinazolin-4-yl)-2,5-dimethyl-piperazin-1-yl) prop-2-en-1-one] | – | ++ (++ indicates binding activity from 50 to 90%) | –
13 | C=CC(=O)N1C[C@@H](C)N(c2nc(N)nc3c(F)c(-c4c(O)cccc4F)c(Cl)cc23)[C@@H](C)C1 [Compound 17, 1-((3S,5R)-4-(2-amino-6-chloro-8-fluoro-7-(2-fluoro-6-hydroxyphenyl)quinazolin-4-yl)-3,5-dimethylpiperazin-1-yl)prop-2-en-1-one] | ++ (++ indicates binding activity from 50 to 90%) | – | –
14 | C=CC(=O)N1C[C@H](C)N(c2nc(N3CC(N(C)CC)C3)nc3c(F)c(-c4c(O)cccc4F)c(Cl)cc23)C[C@H]1C (atropisomer, axis not shown) [Compound 154, 1-((2R,5S)-4-(6-chloro-2-(3-(ethyl(methyl)amino)azetidin-1-yl)-8-fluoro-7-((S)-2-fluoro-6-hydroxyphenyl)quinazolin-4-yl)-2,5-dimethyl-piperazin-1-yl) prop-2-en-1-one] | – | +++ (+++ indicates binding activity greater than 90%) | –
15 | C=CC(=O)N1C[C@H](C)N(c2nc(N3CC(N(C)C)C3)nc3c(F)c(-c4c(O)cccc4F)c(Cl)cc23)C[C@H]1C (atropisomer, axis not shown) [Compound 52, 1-((2R,5S)-4-((S)-6-chloro-2-(3-(dimethylamino)azetidin-1-yl)-8-fluoro-7-(2-fluoro-6-hydroxyphenyl)quinazolin-4-yl)-2,5-dimethyl-piperazin-1-yl) prop-2-en-1-one] | +++ (+++ indicates binding activity greater than 90%) | – | –
